The structures appear in SMILES notation.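 Cells were grown in 96-well plates and exposed to each compound for 48 hours at five concentrations; endpoints were interpolated linearly between bracketing concentrations, or set to the highest concentration if not reached. The concentration for 50% growth inhibition is given as GI50.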 Active and inactive are the calls of the source. Cut-off read from the data, not from the text of the source: active = GI50 up to about 1.1 µM and inactive = higher.

Among the test systems are SN12C; MDA-MB-435; RXF 393; SF-268; NCI-H226; K562; BT-549; MDA-N; HCC 2998; OVCAR-8; UACC-257; EKVX; SK-MEL-2; MCF7; NCI-H23; SF-295; 786-0; OVCAR-3; SNB-75.
Common to all, as to assay: NCI anticancer screen, dose series, 48 h

As to `c1ccc(C(=NNc2nc3ccccc3o2)c2ccccn2)nc1`, the GI50 in the test with SN12C is 0.118 µM (active); in the test on MDA-MB-435, 0.232 µM (active); in the test on RXF 393, 158 nM (active); in the test with SF-268 it was 0.0841 µM (active); in the test with NCI-H226, < 0.01 µM (active); with K562, 0.0327 µM (active). Besides, the GI50 in the test with BT-549 is 0.0908 µM (active); in the test with MDA-N, 0.191 µM (active); in the test with HCC 2998 it was 0.0391 µM (active); with OVCAR-8 it was 0.0301 µM (active); in the test with UACC-257 it was 0.0494 µM (active); with EKVX, < 0.0162 µM (active). The GI50 was 0.0883 µM (active) in the test with SK-MEL-2; < 0.0161 µM (active) with MCF7; 0.0489 µM (active) in the test with NCI-H23; 0.121 µM (active) in the test with SF-295; < 0.0254 µM (active) in the test on 786-0.
With `Cc1ccc(/C=C/C(=O)c2c([O-])on[n+]2-c2ccccc2)cc1`, the GI50 was 3.79 µM (inactive) with SN12C; 2.3 µM (inactive) in the test with MDA-MB-435; 1940 nM (inactive) with RXF 393; 4.35 µM (inactive) with SF-268; 3.79 µM (inactive) in the test on NCI-H226; 3.68 µM (inactive) in the test with K562. Further, the GI50 was 2.72 µM (inactive) with BT-549; 2.92 µM (inactive) in the test on MDA-N; 2.01 µM (inactive) in the test with HCC 2998; 1.85 µM (inactive) in the test on OVCAR-8; 3.64 µM (inactive) with UACC-257; 3.6 µM (inactive) with EKVX. For the same compound, the GI50 was 2.11 µM (inactive) with SK-MEL-2; 3.53 µM (inactive) in the test on MCF7; 3.1 µM (inactive) in the test on OVCAR-3; 4.61 µM (inactive) with NCI-H23; 7.74 µM (inactive) in the test on SF-295; 1.83 µM (inactive) with 786-0.
For the compound `C/C(=N\O)c1ccc(Nc2nc3ccccc3c3occc23)cc1`, the GI50 is 13.1 µM (inactive) with SN12C; 6.58 µM (inactive) with MDA-MB-435; 6.31 µM (inactive) with SF-268; 2.33 µM (inactive) in the test on NCI-H226; 2.19 µM (inactive) in the test with K562; 18.3 µM (inactive) in the test on BT-549. The GI50 in the test with MDA-N is 11.8 µM (inactive); with HCC 2998, 4.1 µM (inactive); with OVCAR-8, 15.2 µM (inactive); in the test with UACC-257 it was 5.12 µM (inactive); in the test on EKVX it was 21.7 µM (inactive); in the test on SK-MEL-2, 12.6 µM (inactive). For the same compound, the GI50 is 3.42 µM (inactive) in the test with MCF7; 12.4 µM (inactive) in the test with OVCAR-3; 15.6 µM (inactive) with NCI-H23; 3.4 µM (inactive) with SF-295; 3.8 µM (inactive) in the test on 786-0.
As to `O=C(CCN1CCCC1)Nc1ccc2sc3ccccc3c(=O)c2n1`, the GI50 in the test on SN12C is 10.1 µM (inactive); with MDA-MB-435, 12.7 µM (inactive); in the test with SNB-75 it was 11.8 µM (inactive); in the test on SF-268, 17.2 µM (inactive); in the test with NCI-H226, 13.8 µM (inactive); in the test on K562, 13.8 µM (inactive). In addition, the GI50 is 13.6 µM (inactive) with BT-549; 13.4 µM (inactive) with MDA-N; 12.3 µM (inactive) with HCC 2998; 11.4 µM (inactive) in the test with OVCAR-8; 12.2 µM (inactive) in the test on UACC-257; 12.4 µM (inactive) in the test on EKVX. Moreover, the GI50 was 13.3 µM (inactive) in the test on SK-MEL-2; 13 µM (inactive) with MCF7; 14.5 µM (inactive) in the test with OVCAR-3; 13.1 µM (inactive) in the test with NCI-H23; 14.8 µM (inactive) with SF-295; 11.7 µM (inactive) in the test on 786-0.
Turning to `O=C1C=C(N2CCCC2)C(=O)c2c(O)ccc(O)c21`, the GI50 in the test on SN12C is > 10 µM (inactive); in the test on SNB-75, > 10 µM (inactive); in the test on RXF 393 it was > 10000 nM (inactive); in the test with SF-268, > 10 µM (inactive); in the test with NCI-H226, > 10 µM (inactive); in the test with K562, 2.92 µM (inactive). Besides, the GI50 in the test with BT-549, in the test with MDA-N, with HCC 2998, in the test on OVCAR-8, with UACC-257 and in the test with EKVX was > 10 µM (inactive) each time. For the same compound, the GI50 is > 10 µM (inactive) in the test on SK-MEL-2; 9.57 µM (inactive) with MCF7; > 10 µM (inactive) in the test with OVCAR-3; > 10 µM (inactive) with SF-295; > 10 µM (inactive) in the test on 786-0.
As to `COc1ccc(S(=O)(=O)O)cc1NS(=O)(=O)c1ccc(C)cc1`, the GI50 with SN12C, in the test with MDA-MB-435, with SNB-75, in the test with SF-268, in the test with NCI-H226 and in the test with K562 was > 100 µM (inactive) in each case. In addition, the GI50 in the test on BT-549, in the test with MDA-N, in the test on OVCAR-8, in the test with UACC-257, in the test with EKVX and in the test with SK-MEL-2 was > 100 µM (inactive) in each case. Moreover, the GI50 in the test with MCF7, with OVCAR-3, in the test on NCI-H23, in the test with SF-295 and in the test with 786-0 was > 100 µM (inactive) in each case.
`Cc1ccc(N2C(=O)C(O)=C(C(=O)C(C)(C)C)C2c2ccc([N+](=O)[O-])cc2)cc1` (configuration not stated): the GI50 with SN12C was 15.4 µM (inactive); in the test on MDA-MB-435, 17.4 µM (inactive); with SF-268, 13 µM (inactive); in the test on NCI-H226, 19.1 µM (inactive); in the test on K562 it was 23.9 µM (inactive); in the test with BT-549, 11.1 µM (inactive). For the same compound, the GI50 with MDA-N was 26 µM (inactive); in the test with HCC 2998, 17.7 µM (inactive); in the test on OVCAR-8, 18.9 µM (inactive); in the test on UACC-257 it was 15.8 µM (inactive); in the test with EKVX, 26.9 µM (inactive); in the test with SK-MEL-2, 24 µM (inactive). Besides, the GI50 is 17.7 µM (inactive) in the test on MCF7; 19.6 µM (inactive) in the test with OVCAR-3; 15.4 µM (inactive) with NCI-H23; 20.9 µM (inactive) with SF-295; 16.3 µM (inactive) with 786-0.
In the case of `COc1cc2c(c(O)c1OC)CC1CCC(=O)N1C2c1cccc2ccccc12` (configuration not stated), the GI50 in the test with SN12C is 16.9 µM (inactive); with MDA-MB-435, 19.2 µM (inactive); in the test on SNB-75 it was 39 µM (inactive); in the test with SF-268 it was 25.1 µM (inactive); in the test on K562, 35.3 µM (inactive); with BT-549 it was 22.3 µM (inactive). In addition, the GI50 in the test on MDA-N was 16.3 µM (inactive); in the test on HCC 2998, 16 µM (inactive); in the test on OVCAR-8, 20 µM (inactive); with UACC-257, 23.6 µM (inactive); with EKVX, 22.3 µM (inactive); with SK-MEL-2, 17.5 µM (inactive). For the same compound, the GI50 in the test with MCF7 is 30.9 µM (inactive); in the test with OVCAR-3, 22.2 µM (inactive); in the test on NCI-H23, 24 µM (inactive); in the test on SF-295, 18.6 µM (inactive); in the test on 786-0 it was 30.3 µM (inactive).
With `CC1CC(N)=Nc2ccccc2N1` (configuration not stated), the GI50 in the test on SN12C is > 100 µM (inactive); with MDA-MB-435 it was > 100 µM (inactive); in the test with SNB-75, 30.1 µM (inactive); in the test on RXF 393, > 100000 nM (inactive); with SF-268, > 100 µM (inactive); with NCI-H226, > 100 µM (inactive). Besides, the GI50 in the test with K562, with BT-549, with MDA-N, in the test with HCC 2998, in the test on OVCAR-8 and in the test on UACC-257 was > 100 µM (inactive) each time. The GI50 with EKVX, in the test with SK-MEL-2, in the test with OVCAR-3, in the test with NCI-H23, in the test on SF-295 and in the test with 786-0 was > 100 µM (inactive) throughout.
Turning to `Cc1cccc(/C=N/NC(=S)NCCc2ccccn2)n1`, the GI50 was 29.9 µM (inactive) in the test with SN12C; 27.4 µM (inactive) in the test with MDA-MB-435; 20.3 µM (inactive) in the test with SNB-75; 19.6 µM (inactive) in the test on SF-268; 16.1 µM (inactive) with NCI-H226; 30.8 µM (inactive) with K562. Further, the GI50 in the test on BT-549 is 35.2 µM (inactive); in the test with MDA-N, 60.8 µM (inactive); in the test on HCC 2998 it was 42.2 µM (inactive); in the test with OVCAR-8, 27.9 µM (inactive); with UACC-257, 33.8 µM (inactive); with EKVX it was 38.2 µM (inactive). For the same compound, the GI50 was 31.2 µM (inactive) with SK-MEL-2; 37.2 µM (inactive) in the test with MCF7; 48 µM (inactive) in the test with OVCAR-3; 26.6 µM (inactive) in the test on NCI-H23; 24.6 µM (inactive) in the test with SF-295; 23.3 µM (inactive) with 786-0.
On to `C[C@@H]1O[C@@H](O[C@H]2CC[C@]3(C=O)[C@H]4CC[C@]5(C)[C@@H](C6=CC(=O)OC6)CC[C@]5(O)[C@@H]4CC[C@]3(O)C2)[C@H](O)[C@H](O)[C@H]1O` [CONVALLATOXIN], for which the GI50 in the test with SN12C is 8.69e-06 µM (active); in the test with MDA-MB-435, 4.23e-05 µM (active); in the test on SNB-75 it was 4.3e-05 µM (active); in the test on RXF 393 it was 0.0167 nM (active); in the test on SF-268 it was 1.21e-05 µM (active); with NCI-H226, 5.35e-05 µM (active). The GI50 in the test on K562 is 4.92e-05 µM (active); in the test on BT-549 it was 1.32e-05 µM (active); in the test with MDA-N it was 4.3e-05 µM (active); in the test with HCC 2998, < 0.01 µM (active); in the test with OVCAR-8, 2.94e-05 µM (active); in the test with UACC-257, 6.67e-05 µM (active). For the same compound, the GI50 in the test with EKVX was 9.51e-06 µM (active); in the test on SK-MEL-2, 7.1e-05 µM (active); with OVCAR-3, 8.91e-06 µM (active); with NCI-H23 it was 9.93e-06 µM (active); in the test on SF-295, 2.73e-05 µM (active); in the test on 786-0 it was 8.79e-06 µM (active).
